In experiment [1] the target is human STING (WT) (Homo sapiens (Human), UniProt Q86WV6, H232R). Nature of the experiment: Differential scanning fluorimetry (DSF), huSTING (WT). The conditions noted are these: for ΔTm at 100 µM: read-out: DSF huSTING (WT) ΔTm (° C.). It is filed as binding. The procedure: (§1) Biophysical experiments were performed with three different recombinant human STING protein variants designated according to allelic nomenclature of Yi et al., (2013). […] These were ligated into a modified pET43a E. coli expression vector designed to encode N-terminal His tag followed by tobacco etch virus protease (TEV) cleavage site and a STING gene sequence. The resulting protein sequences for the three allelic variants are listed below: […] Cultures were then cooled to 16° C. and protein expression induced by the addition of isopropyl β-D-1-thiogalactopyranoside to a final concentration of 0.5 mM and the cultures shaken overnight for further 16 hours. Following expression, cell cultures were centrifuged at 5000×g for 20 min and cell pellet stored frozen at −70° C. Protein purification was initiated by thawing the cell pellet in Lysis buffer (25 mM Tris-HCl pH 8.0, 300 mM NaCl, 5 mM DTT, 2 mM MgCl2, 10 mM imidazole, 0.5 mg/ml lysozyme, benzonase endonuclease [EMD Millipore], 1 mM PMSF, complete protease inhibitor tablets EDTA-free [Roche]) using a ratio of 7 ml of buffer per 1 g of cells. Cells were further lysed by 3 passes through an ice cooled Avestin C5 cell crusher and then centrifuged at 48,000×g at 4° C. […] The IMAC column was then sequentially washed with IMAC Wash buffer 1 and IMAC Wash buffer 2 (25 mM Tris-HCl pH 8.0, 300 mM NaCl, 5 mM DTT, 20 mM Imidazole) and bound His-TEV-hSTING protein eluted with IMAC Elution buffer (25 mM Tris-HCl pH 8.0, 300 mM NaCl, 5 mM DTT, 250 mM Imidazole). […] Differential scanning fluorimetry (DSF) is a rapid screening method for identifying low-molecular-weight ligands that bind and, in doing so, stabilize (or sometimes destabilize) purified proteins (Niesen 2007). DSF monitors thermal unfolding of protein in the presence of a fluorescent dye and is typically performed using a real-time PCR instrument. The temperature at which a protein unfolds is measured by an increase in the fluorescence of a dye with affinity for hydrophobic parts of the protein that are gradually being exposed during unfolding. The fluorescence of the dye is quenched in aqueous environments, but when the dye associates with hydrophobic sites on unfolded protein, its fluorescence increases. The fluorescence intensity is plotted as a function of the temperature, generating a sigmoidal curve that can be described by a two-state transition. The inflection point of the transition curve (Tm) is calculated using simple equations such as that of Boltzmann. Thermal stability of STING protein (with and without bound ligand) was measured using previously described methodology (Seabrook & Newman, 2013), with samples tested in triplicate using 96-well PCR microplate (AB Gene, ABGAB-0600/W). […] Sealed plates were placed into Bio-Rad CFX96/C1000 thermocycler and FRET scanning mode (λ^excitation of 490 nm and reads at a λ^emission of 570 nm). Melting curves were recorded from 20° C. to 100° C. in 0.5° C. increments every 30 seconds with a read at each increment. Data were analysed using “Meltdown analysis” protocol described by Rosa (2015).
human STING (WT), sequence (Q86WV6 other isoform, or with tags, fused parts or gaps, stated change not applied): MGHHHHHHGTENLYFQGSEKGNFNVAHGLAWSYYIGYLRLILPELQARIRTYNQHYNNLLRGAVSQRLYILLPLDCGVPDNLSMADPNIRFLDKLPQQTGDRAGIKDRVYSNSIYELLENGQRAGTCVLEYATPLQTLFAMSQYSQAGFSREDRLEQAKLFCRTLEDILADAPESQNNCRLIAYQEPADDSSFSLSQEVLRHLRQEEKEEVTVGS
(In general: Differential scanning fluorimetry follows unfolding on heating by fluorescence.)

In experiment [2] the target is human STING (HAQ) (Homo sapiens, UniProt Q86WV6, G230A/H232R/R293Q). Nature of the experiment: Differential scanning fluorimetry (DSF), huSTING (HAQ). It is filed as binding. Conditions: read-out: DSF huSTING (HAQ) ΔTm (° C.). The procedure:
as §1

The target in experiment [3] is human HAQ isoform of STING (THP-1 STING Lucia ISG cells) (Homo sapiens (Human), UniProt Q86WV6, G230A/H232R/R293Q/R71H). Nature of the experiment: THP-1 STING Lucia ISG reporter cell line assay. It is filed as cell-based. The conditions noted are these: 24 h incubation, QUANTI-Luc luminescence. How it is done:
(§2) THP-1 STING Lucia ISG cells (InvivoGen #thpI-isg) were cultured in RPMI-1640 containing 2 mM L-glutamine, 25 mM HEPES, 100 μg/mL Normocin (InvivoGen) and 10% heat-inactivated FBS. Cells were seeded at a density of 7×10^5 cells/mL, maintained at 37° C./5% CO2, and passaged every 3-4 days. Selection pressure was maintained by the addition of 100 μg/mL Zeocin every second passage.
(§3) Assay conditions: cells were harvested and resuspended at a concentration of 5×10^5 cells/mL in fresh growth media. Of this cell preparation 20 μL per well was dispensed into 384 well cell culture plates (Greiner, #781098X) and incubated at 37° C./5% CO2 for 2 hours. Concentration Response Curves (commonly 11 doses) were prepared by 2.5 fold serial dilution starting from 10 mM compound stock solution in DMSO. Compound dilutions were transferred into the cell culture plates using a pintool (0.1 μL transfer), control wells were matched for DMSO. Positive control wells received ML RR—S2 CDA (Med Chem Express HY12885B) in 5 μL of media to a final concentration of 40 μM. All other wells received additional 5 μL of media only to equalise volume. The plates were incubated for 24 h at 37° C./5% CO2.
(§4) For the detection step, QUANTI-Luc (InvivoGen #rep-qlc1) was prepared according to manufacturer's instruction and 10 μL were added per well to the culture plates. Plates were shaken for ten seconds on an orbital shaker and left in the dark at room temperature for two minutes, before luminescence was read on a Perkin Elmer Envision plate reader.
(§5) Data analysis: Luminescence raw data was normalised % activity relative to the signal of the positive control wells and negative control wells which were not treated with compound. The following formula was used to calculate normalised % activity from raw signals: % activity=(sample−negative)/(positive−negative)
(§6) The THP-1 STING Lucia ISG cell EC50 provides an assessment of activity at the human HAQ isoform of STING. For assessing compound activity against the WT human STING isoform, an equivalent method was conducted where the cells used were THP-1-Dual KI-hSTING-R232 (InvivoGen #thpd-r232).

Experiment [4] addresses WT human STING isoform (THP-1-Dual KI-hSTING-R232 cells) (Homo sapiens (Human), UniProt Q86WV6, H232R). As to the kind of experiment: THP-1-Dual KI-hSTING-R232 reporter cell line assay. It is filed as cell-based. The conditions noted are these: 24 h incubation, QUANTI-Luc luminescence. The procedure: as §2, §3, §4, §5, §6
Experiment [5] concerns human STING (HAQ). Nature of the experiment: Differential scanning fluorimetry (DSF), huSTING (HAQ). It is filed as binding. Conditions: 2 μM protein, compound 100 μM; Tm with ligand minus Tm of protein alone (1% DMSO). The procedure:
as §1

The mark [6] stands for this setting: 2 μM protein, compound 100 μM, Tm with ligand minus Tm of protein alone (1% DMSO).

This note sets out measurements from US12415785B2, “Compound modulators of sting” (CTXT PTY LTD, priority 2019, dated 2025).

Read-outs that look alike come from different tables or passages of the source.

WT human STING isoform (THP-1-Dual KI-hSTING-R232 cells), sequence (Q86WV6 whole entry H232R, canonical isoform): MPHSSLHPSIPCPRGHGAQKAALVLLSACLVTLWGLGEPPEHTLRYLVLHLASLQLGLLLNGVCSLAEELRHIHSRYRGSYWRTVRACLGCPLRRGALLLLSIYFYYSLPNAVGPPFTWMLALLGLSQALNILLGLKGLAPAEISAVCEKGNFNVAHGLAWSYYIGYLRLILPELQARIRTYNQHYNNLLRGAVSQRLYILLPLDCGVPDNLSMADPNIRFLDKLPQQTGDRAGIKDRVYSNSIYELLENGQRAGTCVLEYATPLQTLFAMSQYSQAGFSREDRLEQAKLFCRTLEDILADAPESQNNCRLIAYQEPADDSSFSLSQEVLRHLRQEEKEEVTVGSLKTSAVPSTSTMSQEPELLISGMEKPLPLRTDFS
human HAQ isoform of STING (THP-1 STING Lucia ISG cells), sequence (Q86WV6 whole entry R71H/G230A/H232R/R293Q, canonical isoform): as the sequence (Q86WV6 whole entry H232R, canonical isoform) above, with R71H, G230A, R293Q counted along it
human STING (HAQ) (Homo sapiens, UniProt Q86WV6, G230A/H232R/R293Q), sequence (Q86WV6 whole entry G230A/H232R/R293Q, looked up): as the sequence (Q86WV6 whole entry H232R, canonical isoform) above, with G230A, R293Q counted along it

In the case of `COc1c(C(N)=O)ccc2c1nc(-c1ccc(C#N)cc1C(=O)O)n2CCn1c(-c2ccc(C#N)cc2C(=O)O)nc2c(OC)c(C(N)=O)ccc21` [Example 51, 2-(5-Carbamoyl-1-(2-(5-carbamoyl-2-(2-carboxy-4-cyanophenyl)-4-methoxy-1H-benzo[d]imidazol-1-yl)ethyl)-4-methoxy-1H-benzo[d]imidazol-2-yl)-5-cyanobenzoic acid], the ΔTm at 100 µM in experiment [1] (setting [6]) was -0.85 °C; in experiment [2] (setting [6]) it was 1.6 °C.
As to `COc1c(C(N)=O)ccc2c1nc(-c1ccc(Cl)cc1-c1nn[nH]n1)n2CCn1c(-c2c(F)cc(Cl)cc2C(=O)O)nc2c(OC)c(C(N)=O)ccc21` [Example 47, 2-(5-Carbamoyl-1-(2-(5-carbamoyl-2-(4-chloro-2-(2H-tetrazol-5-yl)phenyl)-4-methoxy-1H-benzo[d]imidazol-1-yl)ethyl)-4-methoxy-1H-benzo[d]imidazol-2-yl)-5-chloro-3-fluorobenzoic acid], the EC50 came to 497 nM in experiment [3] and 549 nM in experiment [4].
As for `COc1c(C(N)=O)ccc2c1nc(-c1cc(Cl)c(Cl)cc1C(=O)O)n2CCn1c(-c2cc(Cl)c(Cl)cc2C(=O)O)nc2c(OC)c(C(N)=O)ccc21` [Example 8, 6,6′-(Ethane-1,2-diylbis(5-carbamoyl-4-methoxy-1H-benzo[d]imidazole-1,2-diyl))bis(3,4-dichlorobenzoic acid)], the values for the ΔTm at 100 µM in experiment [1] and in experiment [2] were 6.38 °C and 23.2 °C, respectively. Also, the EC50 in experiment [3] came out at 540 nM; in experiment [4], 426 nM.
For the molecule `NC(=O)c1ccc2c(c1)nc(-c1ccc(Cl)cc1C(=O)O)n2CCn1c(-c2ccc(Cl)cc2C(=O)O)nc2cc(C(N)=O)ccc21` [Example 39, 6,6′-(Ethane-1,2-diylbis(5-carbamoyl-1H-benzo[d]imidazole-1,2-diyl))bis(3-chlorobenzoic acid)], the ΔTm at 100 µM is -4.35 °C in experiment [1] (setting [6]) and 0.86 °C in experiment [2] (setting [6]). Also, the EC50 in experiment [3] and in experiment [4] was > 40000 nM throughout.
With `COc1c(C(N)=O)ccc2c1nc(-c1c(I)cccc1C(=O)O)n2CCn1c(-c2c(I)cccc2C(=O)O)nc2c(OC)c(C(N)=O)ccc21` (single isomer, unassigned) [Example 19.2, 2,2′-(Ethane-1,2-diylbis(5-carbamoyl-4-methoxy-1H-benzo[d]imidazole-1,2-diyl))bis(3-iodobenzoic acid)], the “DSF huSTING (WT) ΔTm (° C.)” value in experiment [1] (setting [6]) was 6.58 °C. Also, the values for the EC50 in experiment [3] and in experiment [4] were 14900 nM and 11700 nM, respectively. Moreover, the “DSF huSTING (HAQ) ΔTm (° C.)” value in experiment [5] was 21.66 °C.
On to `COc1c(C(N)=O)ccc2c1nc(-c1ccc(Br)cc1C(=O)O)n2CCn1c(-c2ccc(Br)cc2C(=O)O)nc2c(OC)c(C(N)=O)ccc21` [Example 14, 6,6′-(Ethane-1,2-diylbis(5-carbamoyl-4-methoxy-1H-benzo[d]imidazole-1,2-diyl))bis(3-bromobenzoic acid)], for which the ΔTm at 100 µM in experiment [1] (setting [6]) turned out to be 4.74 °C; in experiment [2] (setting [6]), 9.15 °C. The EC50 in experiment [3] was 1310 nM; in experiment [4] it was 1990 nM.
The like results for `COc1c(C(N)=O)ccc2c1nc(-c1ccc(F)cc1C(=O)O)n2CCn1c(-c2ccc(F)cc2C(=O)O)nc2c(OC)c(C(N)=O)ccc21` [Example 27, 6,6′-(Ethane-1,2-diylbis(5-carbamoyl-4-methoxy-1H-benzo[d]imidazole-1,2-diyl))bis(3-fluorobenzoic acid)] were, in that order, 2.62 °C, 6.17 °C, 11300 nM and 10500 nM.
In the case of `COc1c(C(N)=O)ccc2c1nc(-c1cc(Cl)ccc1C(=O)O)n2CCn1c(-c2cc(Cl)ccc2C(=O)O)nc2c(OC)c(C(N)=O)ccc21` [Example 7, 2,2′-(Ethane-1,2-diylbis(5-carbamoyl-4-methoxy-1H-benzo[d]imidazole-1,2-diyl))bis(4-chlorobenzoic acid)], the ΔTm at 100 µM in experiment [1] (setting [6]) is -2.49 °C; in experiment [2] (setting [6]), 5.88 °C. In addition, the EC50 in experiment [3] was 1550 nM; in experiment [4], 1430 nM.
With `COC(=O)c1cc(Br)ccc1-c1nc2c(OC)c(C(N)=O)ccc2n1CCn1c(-c2ccc(Br)cc2C(=O)OC)nc2c(OC)c(C(N)=O)ccc21` [Example 13, Dimethyl 6,6′-(ethane-1,2-diylbis(5-carbamoyl-4-methoxy-1H-benzo[d]imidazole-1,2-diyl))bis(3-bromobenzoate)], the EC50 in experiment [3] and in experiment [4] was > 40000 nM throughout.
On to `COc1c(C(N)=O)ccc2c1nc(-c1c(C(=O)O)ccc(Cl)c1F)n2CCn1c(-c2c(C(=O)O)ccc(Cl)c2F)nc2c(OC)c(C(N)=O)ccc21` [Example 12, 2,2′-(Ethane-1,2-diylbis(5-carbamoyl-4-methoxy-1H-benzo[d]imidazole-1,2-diyl))bis(4-chloro-3-fluorobenzoic acid)], for which the ΔTm at 100 µM in experiment [1] (setting [6]) was 4.56 °C; in experiment [2] (setting [6]), 28.3 °C. Further, the EC50 in experiment [3] came out at 2650 nM; in experiment [4] it was 2550 nM.
As for `COc1c(C(N)=O)ccc2c1nc(-c1cc(F)ccc1C(=O)O)n2CCn1c(-c2cc(F)ccc2C(=O)O)nc2c(OC)c(C(N)=O)ccc21` [Example 28, 2,2′-(Ethane-1,2-diylbis(5-carbamoyl-4-methoxy-1H-benzo[d]imidazole-1,2-diyl))bis(4-fluorobenzoic acid)], the ΔTm at 100 µM in experiment [1] (setting [6]) was -6.6 °C; in experiment [2] (setting [6]) it was -2.19 °C. Moreover, the EC50 in experiment [3] is 12600 nM; in experiment [4], > 40000 nM.
`NC(=O)c1ccc2c(c1)nc(-c1c(Br)cccc1C(=O)O)n2CCn1c(-c2c(Br)cccc2C(=O)O)nc2cc(C(N)=O)ccc21` (single isomer, unassigned) [Example 29.2, 2,2′-(Ethane-1,2-diylbis(5-carbamoyl-1H-benzo[d]imidazole-1,2-diyl))bis(3-bromobenzoic acid)]: the “DSF huSTING (WT) ΔTm (° C.)” value in experiment [1] (setting [6]) was −6.70 °C. The EC50 in experiment [3] and in experiment [4] was > 40000 nM each time. The “DSF huSTING (HAQ) ΔTm (° C.)” value in experiment [5] was −5.65 °C.

A word on the ΔTm: it is the change in melting temperature against a reference sample. Usually EC50 stands for the midpoint of the concentration-response curve. Low readings indicate a more potent agent, high ones a less potent agent.
